Like-named read-outs stand apart in the source and are kept apart here. *1 amine or outer side, *2 acyl side, *3 side chain or, on linkers, in order; H or OH if unused. Where a SMILES comes first, the peptide text is derived from it. Side-chain parts run from the residue outwards. [ ]: non-standard residue; d: D form. The star is where a group is joined. Nonadecanoyl(19-PO3H2) = O=C(CCCCCCCCCCCCCCCCCCP(=O)(O)O)*; γGlu = O=C(O)[C@H](CCC(=O)[*:2])N[*:1]; AEEA = NCCOCCOCC(=O)O; Aib = CC(C)(N)C(=O)O
Experiments:
[1] = target: human recombinant GLP-1 receptor (Homo sapiens, UniProt P43220); assay: TagLite binding assay, GLP-1 receptor, without and with 2% HSA
Chain of human recombinant GLP-1 receptor (P43220 24-463): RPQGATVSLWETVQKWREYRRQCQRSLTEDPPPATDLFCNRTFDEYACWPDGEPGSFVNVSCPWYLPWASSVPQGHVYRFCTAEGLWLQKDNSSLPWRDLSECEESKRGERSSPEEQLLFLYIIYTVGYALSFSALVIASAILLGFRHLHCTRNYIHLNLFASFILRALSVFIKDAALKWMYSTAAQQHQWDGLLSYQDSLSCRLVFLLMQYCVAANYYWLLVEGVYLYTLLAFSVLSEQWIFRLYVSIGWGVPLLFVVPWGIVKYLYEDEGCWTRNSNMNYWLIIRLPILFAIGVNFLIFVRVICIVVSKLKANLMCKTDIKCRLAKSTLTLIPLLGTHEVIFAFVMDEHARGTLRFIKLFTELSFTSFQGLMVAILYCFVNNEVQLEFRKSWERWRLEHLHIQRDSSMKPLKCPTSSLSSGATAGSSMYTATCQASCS
Text: (§1) Binding data for Compounds 15-25, for two human recombinant G protein coupled receptors, GLP-1 and GIP, was obtained using […]® binding assay and Epics Therapeutics cell lines. The binding assay was repeated in the presence of 2% human serum albumin (HSA). Compounds 16, 21, and 22 have an HSA ratio for the GLP-1 receptor of 7.1, 7.6, and 7.8, respectively. Compounds 15, 18, and 23 have an HSA ratio for the GIP receptor of 7.3, 4.3, and 6.4, respectively. A lower HSA ratio indicates greater binding affinity for the receptor than for albumin when compared to a compound with a greater HSA ratio.

[2] = target: T1, human recombinant GIP receptor (Homo sapiens, UniProt P48546); assay: TagLite binding assay, GIP receptor, without and with 2% HSA
T1 sequence (P48546 22-466): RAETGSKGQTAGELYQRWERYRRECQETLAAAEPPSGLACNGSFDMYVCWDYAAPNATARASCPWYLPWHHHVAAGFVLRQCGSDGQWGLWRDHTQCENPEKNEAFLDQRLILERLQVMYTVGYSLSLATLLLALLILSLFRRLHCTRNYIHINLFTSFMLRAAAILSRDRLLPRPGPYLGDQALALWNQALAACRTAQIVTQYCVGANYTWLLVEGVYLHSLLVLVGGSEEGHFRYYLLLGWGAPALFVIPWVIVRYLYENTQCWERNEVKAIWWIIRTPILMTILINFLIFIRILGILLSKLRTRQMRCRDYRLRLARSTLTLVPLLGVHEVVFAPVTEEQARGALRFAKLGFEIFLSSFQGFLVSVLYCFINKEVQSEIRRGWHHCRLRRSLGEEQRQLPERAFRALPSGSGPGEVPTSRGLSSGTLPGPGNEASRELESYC
Text: as §1

[3] = set-up: species or system cynomolgus monkeys; conditions: cynomolgus monkey, in vivo
Description: Subcutaneous (SC) dosing of the compounds in a vehicle of 0.1% bovine serum albumin in phosphate buffered saline solution was performed with male cynomolgus monkeys. […] Samples were obtained at 1, 4, 8, 12, 24, 48, 72, 96, 120, 168, 192, 240 and 336 hours after the single dose was administered.

[4] = 2% human serum albumin, read-out: GLP-1 receptor IC50 2% HSA
[5] = no HSA, read-out: GLP-1 receptor IC50 No HSA
[6] = 2% human serum albumin, read-out: GIP receptor IC50 2% HSA
[7] = no HSA, read-out: GIP receptor IC50 No HSA

SMILES | IC50 [1, 4] [µM] | IC50 [1, 5] [µM] | IC50 [2, 6] [µM] | IC50 [2, 7] [µM] | AUC(0-inf) ([3]; sc, 0.2 mg/kg) [µg·h/mL] | AUC(0-t) ([3]; sc, 0.2 mg/kg) [µg·h/mL] | Cmax ([3]; sc, 0.2 mg/kg) [µg/mL] | Tmax ([3]; sc, 0.2 mg/kg) [h] | half-life ([3]; sc, 0.2 mg/kg) [h] | mean half life longer compared to tirzepatide ([3]; sc, 0.2 mg/kg) | AUC(0-inf) [3] [µg·h/mL] | AUC(0-t) [3] [µg·h/mL] | Cmax [3] [µg/mL] | Tmax [3] [h] | half-life [3] [h]
CC[C@H](C)[C@H](NC(=O)[C@H](CC(C)C)NC(=O)[C@H](Cc1c[nH]c2ccccc12)NC(=O)[C@H](CCC(N)=O)NC(=O)[C@@H](NC(=O)[C@H](Cc1ccccc1)NC(=O)[C@H](C)NC(=O)[C@H](CCC(N)=O)NC(=O)[C@H](CCC(N)=O)NC(=O)[C@H](C)NC(=O)[C@@H](NC(=O)[C@H](CCCCNC(=O)COCCOCCNC(=O)COCCOCCNC(=O)CC[C@H](NC(=O)CCCCCCCCCCCCCCCCCCP(=O)(O)O)C(=O)O)NC(=O)[C@H](CC(=O)O)NC(=O)[C@H](CC(C)C)NC(=O)C(C)(C)NC(=O)[C@@H](NC(=O)[C@H](CO)NC(=O)[C@H](Cc1ccc(O)cc1)NC(=O)[C@H](CC(=O)O)NC(=O)[C@H](CO)NC(=O)[C@@H](NC(=O)[C@H](Cc1ccccc1)NC(=O)[C@@H](NC(=O)CNC(=O)[C@H](CCC(=O)O)NC(=O)C(C)(C)NC(=O)[C@@H](N)Cc1ccc(O)cc1)[C@@H](C)O)[C@@H](C)O)[C@@H](C)CC)[C@@H](C)CC)C(C)C)C(=O)N[C@@H](C)C(=O)NCC(=O)NCC(=O)N1CCC[C@H]1C(=O)N[C@@H](CO)C(=O)N[C@@H](CO)C(=O)NCC(=O)N[C@@H](C)C(=O)N1CCC[C@H]1C(=O)N1CCC[C@H]1C(=O)N1CCC[C@H]1C(=O)N[C@@H](CO)C(N)=O [Compound 15] (H-Y[Aib]EGTFTSDYSI[Aib]LDK([AEEA-AEEA-γGlu-Nonadecanoyl(19-PO3H2)])IAQQAFVQWLIAGGPSSGAPPPS-NH2) | 3.83 | 0.347 | 0.807 | 0.11 | 185 | 182 | 2.52 | 9.33 | 60 |  |  |  |  |  | 
CC[C@H](C)[C@H](NC(=O)[C@H](CC(C)C)NC(=O)[C@H](Cc1c[nH]c2ccccc12)NC(=O)[C@H](CCC(N)=O)NC(=O)[C@@H](NC(=O)[C@H](Cc1ccccc1)NC(=O)[C@H](C)NC(=O)[C@H](CCCCNC(=O)COCCOCCNC(=O)COCCOCCNC(=O)CC[C@H](NC(=O)CCCCCCCCCCCCCCCCCCP(=O)(O)O)C(=O)O)NC(=O)[C@H](CCC(N)=O)NC(=O)[C@H](C)NC(=O)[C@@H](NC(=O)[C@H](CCCCN)NC(=O)[C@H](CC(=O)O)NC(=O)[C@H](CC(C)C)NC(=O)C(C)(C)NC(=O)[C@@H](NC(=O)[C@H](CO)NC(=O)[C@H](Cc1ccc(O)cc1)NC(=O)[C@H](CC(=O)O)NC(=O)[C@H](CO)NC(=O)[C@@H](NC(=O)[C@H](Cc1ccccc1)NC(=O)[C@@H](NC(=O)CNC(=O)[C@H](CCC(=O)O)NC(=O)C(C)(C)NC(=O)[C@@H](N)Cc1ccc(O)cc1)[C@@H](C)O)[C@@H](C)O)[C@@H](C)CC)C(C)C)C(C)C)C(=O)N[C@@H](C)C(=O)NCC(=O)NCC(=O)N1CCC[C@H]1C(=O)N[C@@H](CO)C(=O)N[C@@H](CO)C(=O)NCC(=O)N[C@@H](C)C(=O)N1CCC[C@H]1C(=O)N1CCC[C@H]1C(=O)N1CCC[C@H]1C(=O)N[C@@H](CO)C(N)=O [Compound 17] (H-Y[Aib]EGTFTSDYSI[Aib]LDKVAQK([AEEA-AEEA-γGlu-Nonadecanoyl(19-PO3H2)])AFVQWLIAGGPSSGAPPPS-NH2) | 3.74 | 0.316 | 4.17 | 0.543 | 286 | 254 | 2.3 | 6.67 | 102 | at least 50% |  |  |  |  | 
CC[C@H](C)[C@H](NC(=O)[C@H](CCCCN)NC(=O)[C@H](CC(=O)O)NC(=O)[C@H](CC(C)C)NC(=O)[C@H](Cc1ccccc1)NC(=O)[C@@H](NC(=O)[C@H](CO)NC(=O)[C@H](Cc1ccc(O)cc1)NC(=O)[C@H](CC(=O)O)NC(=O)[C@H](CO)NC(=O)[C@@H](NC(=O)[C@H](Cc1ccccc1)NC(=O)[C@@H](NC(=O)CNC(=O)[C@H](CCC(=O)O)NC(=O)C(C)(C)NC(=O)[C@@H](N)Cc1ccc(O)cc1)[C@@H](C)O)[C@@H](C)O)[C@@H](C)CC)C(=O)N[C@@H](C)C(=O)N[C@@H](CCC(N)=O)C(=O)N[C@@H](CCCCNC(=O)COCCOCCNC(=O)COCCOCCNC(=O)CC[C@H](NC(=O)CCCCCCCCCCCCCCCCCCP(=O)(O)O)C(=O)O)C(=O)N[C@@H](C)C(=O)N[C@@H](Cc1ccccc1)C(=O)N[C@H](C(=O)N[C@@H](CCC(N)=O)C(=O)N[C@@H](Cc1c[nH]c2ccccc12)C(=O)N[C@@H](CC(C)C)C(=O)N[C@H](C(=O)N[C@@H](C)C(=O)NCC(=O)NCC(=O)N1CCC[C@H]1C(=O)N[C@@H](CO)C(=O)N[C@@H](CO)C(=O)NCC(=O)N[C@@H](C)C(=O)N1CCC[C@H]1C(=O)N1CCC[C@H]1C(=O)N1CCC[C@H]1C(=O)N[C@@H](CO)C(N)=O)[C@@H](C)CC)C(C)C [Compound 18] (H-Y[Aib]EGTFTSDYSIFLDKIAQK([AEEA-AEEA-γGlu-Nonadecanoyl(19-PO3H2)])AFVQWLIAGGPSSGAPPPS-NH2) | 1.52 | 0.166 | 2.85 | 0.659 | 149 | 140 | 1.34 | 13.3 | 81.1 |  |  |  |  |  | 
CC[C@H](C)[C@H](NC(=O)[C@H](CC(C)C)NC(=O)[C@H](Cc1c[nH]c2ccccc12)NC(=O)[C@H](CCC(N)=O)NC(=O)[C@@H](NC(=O)[C@H](Cc1ccccc1)NC(=O)[C@H](C)NC(=O)[C@H](CCCCNC(=O)COCCOCCNC(=O)COCCOCCNC(=O)CC[C@H](NC(=O)CCCCCCCCCCCCCCCCCCP(=O)(O)O)C(=O)O)NC(=O)[C@H](CCC(N)=O)NC(=O)[C@H](C)NC(=O)[C@@H](NC(=O)[C@H](CCCCN)NC(=O)[C@H](CC(=O)O)NC(=O)[C@H](CC(C)C)NC(=O)C(C)(C)NC(=O)[C@@H](NC(=O)[C@H](CO)NC(=O)[C@H](Cc1ccc(O)cc1)NC(=O)[C@H](CC(=O)O)NC(=O)[C@H](CO)NC(=O)[C@@H](NC(=O)[C@H](Cc1ccccc1)NC(=O)[C@@H](NC(=O)CNC(=O)[C@H](CCC(=O)O)NC(=O)C(C)(C)NC(=O)[C@@H](N)Cc1ccc(O)cc1)[C@@H](C)O)[C@@H](C)O)[C@@H](C)CC)C(C)C)C(C)C)C(=O)N[C@@H](CCCNC(=N)N)C(=O)NCC(=O)NCC(=O)N1CCC[C@H]1C(=O)N[C@@H](CO)C(=O)N[C@@H](CO)C(=O)NCC(=O)N[C@@H](C)C(=O)N1CCC[C@H]1C(=O)N1CCC[C@H]1C(=O)N1CCC[C@H]1C(=O)N[C@@H](CO)C(N)=O [Compound 25] (H-Y[Aib]EGTFTSDYSI[Aib]LDKVAQK([AEEA-AEEA-γGlu-Nonadecanoyl(19-PO3H2)])AFVQWLIRGGPSSGAPPPS-NH2) |  |  |  |  |  |  |  |  |  |  | 287 | 272 | 1.57 | 24 | 117
CC[C@H](C)[C@H](NC(=O)[C@H](CC(C)C)NC(=O)[C@H](Cc1c[nH]c2ccccc12)NC(=O)[C@H](CCC(N)=O)NC(=O)[C@@H](NC(=O)[C@H](Cc1ccccc1)NC(=O)[C@H](C)NC(=O)[C@H](CCCCNC(=O)COCCOCCNC(=O)COCCOCCNC(=O)CC[C@H](NC(=O)CCCCCCCCCCCCCCCCCCC(=O)O)C(=O)O)NC(=O)[C@H](CCC(N)=O)NC(=O)[C@H](C)NC(=O)[C@@H](NC(=O)[C@H](CCCCN)NC(=O)[C@H](CC(=O)O)NC(=O)[C@H](CC(C)C)NC(=O)C(C)(C)NC(=O)[C@@H](NC(=O)[C@H](CO)NC(=O)[C@H](Cc1ccc(O)cc1)NC(=O)[C@H](CC(=O)O)NC(=O)[C@H](CO)NC(=O)[C@@H](NC(=O)[C@H](Cc1ccccc1)NC(=O)[C@@H](NC(=O)CNC(=O)[C@H](CCC(=O)O)NC(=O)C(C)(C)NC(=O)[C@@H](N)Cc1ccc(O)cc1)[C@@H](C)O)[C@@H](C)O)[C@@H](C)CC)[C@@H](C)CC)C(C)C)C(=O)N[C@@H](C)C(=O)NCC(=O)NCC(=O)N1CCC[C@H]1C(=O)N[C@@H](CO)C(=O)N[C@@H](CO)C(=O)NCC(=O)N[C@@H](C)C(=O)N1CCC[C@H]1C(=O)N1CCC[C@H]1C(=O)N1CCC[C@H]1C(=O)N[C@@H](CO)C(N)=O [TRZ, Tirzepatide, reference compound] |  |  |  |  | 242 | 237 | 2.25 | 40 | 57.1 |  |  |  |  |  | 

— patent publication US12421282B2, “Compositions and methods for the treatment of metabolic and liver disorders” (priority 2021, dated 2025)
